PMC11359197 (Viruses, 2024)

Target: released M^pro-GST (Severe acute respiratory syndrome coronavirus 2, UniProt P0DTD1, Q3569E)
Format: cell-based, SARS-CoV-2

Row | Compound | GFP signal (GFP degradation by the released M^pro-GST) | GFP signal versus DMSO controls, pilot screen
1 | CC(NC(=O)[C@H](Cc1ccccc1)NC(=O)OCc1ccccc1)C(=O)CF (some centres unmarked) [Z-FA-FMK] | consistently suppressed the GFP degradation | higher GFP signals
2 | CC(C)[C@H](O)C(=O)N[C@@H](C)C(=O)N[C@@H]1C(=O)N(C)CCc2ccccc21 [LY450139] | – | higher GFP signals
3 | COC(=O)N[C@H](C(=O)N[C@@H](Cc1ccccc1)[C@@H](O)CN(Cc1ccc(-c2ccccn2)cc1)NC(=O)[C@@H](NC(=O)OC)C(C)(C)C)C(C)(C)C [atazanavir] | background levels | –
4 | CC(C)(C)NC(=O)N[C@H](C(=O)N1C[C@H]2[C@@H]([C@H]1C(=O)NC(CC1CCC1)C(=O)C(N)=O)C2(C)C)C(C)(C)C (some centres unmarked) [boceprevir, Boceprevir] | consistently suppressed the GFP degradation | higher GFP signals
5 | Cc1cccc(C)c1OCC(=O)N[C@@H](Cc1ccccc1)[C@@H](O)C[C@H](Cc1ccccc1)NC(=O)[C@H](C(C)C)N1CCCNC1=O [lopinavir] | background levels | –
6 | CC(C)C[C@H](NC(=O)[C@H]1O[C@@H]1C(=O)O)C(=O)NCCCCN=C(N)N [E-64] | background levels | –
